Results taken from paper PMC5807445, “A printable hydrogel microarray for drug screening avoids false positives associated with promiscuous aggregating inhibitors” (Nature Communications, 2018).

Columns and labels:
TEM-1 β-lac [1] = target: T1, TEM-1 β-lac (Escherichia coli, UniProt P62593); experiment: Printed hydrogel-based β-lac assay (nitrocefin, colorimetric image analysis); assay type: biochemical; conditions: promiscuous aggregating inhibitors; starting concentration 100 μM
Method: Inhibitor solutions and nitrocefin (a colorimetric β-lac substrate) were subsequently deposited on the microzones at different concentrations using a high-throughput dispensing robot. The resulting colorimetric read-out of β-lac activity was quantified via image analysis.
POH ink solution was prepared with a final concentration of 50 nM β-lac and used to print hydrogel spots on a 96-well paper microzone plate as described previously. […] The inhibitor was incubated with the printed β-lac for 20 min, after which the assay was initiated with the addition of 5 μl of nitrocefin (500 μM) to each microzone. […] Images were taken with a Canon DSLR camera (operated in manual focus mode without flash) after 25 min. The wax-printed background was filtered out using GIMP software (Version 2.8.16). Image analysis was performed using Fiji, with the converted substrate color extracted using the Color Deconvolution plugin. Extracted images were inverted and converted to 8 bit grayscale images. The intensity of each sample was measured and presented as a ratio of the control image (i.e., a microzone not treated with inhibitor). Calculation of IC50 values was carried out in OriginPro by plotting the calculated percentage inhibition against the added inhibitor concentration. Curve fitting was performed with the dose–response function (OriginLab Corporation, Northampton, MA, USA).

[2] = Promiscuous aggregating inhibitor size measurement by dynamic light scattering (DLS); assay type: physicochemical; conditions: 100 μM solutions; for Aggregate size (Z-average diameter, DLS) / Polydispersity (DLS): 23°C
Method: Promiscuous aggregating inhibitor size measurement
Dynamic light scattering measurements were performed using a Zetasizer Nano ZS instrument (Malvern). The intensity of backscattered light was measured at a 173° angle. Data collection and analysis were performed using the Dispersion Technology Software (version 6.0) from Malvern. Samples of Rottlerin, BIS IX and TIPT at 100 μM concentrations were analyzed in a plastic cuvette with a 10 mm path length. Prior to measurement, samples were equilibrated for 120 s at 23°C. For each sample, 10 runs were performed with three repetitions. The intensity size distribution, Z-average diameter and polydispersity index was collected for each sample. Note that no significant signal was acquired from DLS measurements on the true inhibitors, confirming their solution state.

TEM-1 β-lac [3] = target: T1, TEM-1 β-lac; experiment: Solution-based β-lac assay (nitrocefin hydrolysis, absorbance at 492 nm); assay type: biochemical; conditions: promiscuous aggregating inhibitors; diluted from 10 mM DMSO stocks
β-lactamase = conditions: reported literature values; cited from earlier work

T1 sequence (P62593 24-286 limits assumed): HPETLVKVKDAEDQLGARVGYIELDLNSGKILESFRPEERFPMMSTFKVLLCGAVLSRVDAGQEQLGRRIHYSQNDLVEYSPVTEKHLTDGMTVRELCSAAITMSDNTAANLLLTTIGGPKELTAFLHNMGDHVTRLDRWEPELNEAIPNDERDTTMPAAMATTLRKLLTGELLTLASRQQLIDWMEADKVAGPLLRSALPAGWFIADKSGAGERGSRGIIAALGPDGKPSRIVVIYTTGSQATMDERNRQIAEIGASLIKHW

Row | Compound | Specific inhibition of β-lac in the hydrogel-based assay (TEM-1 β-lac [1]) | Particle size range of aggregates (DLS intensity distribution) [2] | Aggregate size (Z-average diameter, DLS) [2] [nm] | Polydispersity (DLS) [2] | Inhibition of β-lac in the solution-based assay (false-positive hit) (TEM-1 β-lac [3]) | IC50 (β-lactamase) [µM]
1 | CC(=O)c1c(O)c(C)c(O)c(Cc2c(O)c3c(c(C(=O)/C=C/c4ccccc4)c2O)OC(C)(C)C=C3)c1O [Rottlerin, rottlerin] | no specific inhibition | 50-800 nm | 188 ± 1 | 0.24 ± 0.01 | inhibited | 
2 | C[C@]1(Cn2ccnn2)[C@H](C(=O)O)N2C(=O)C[C@H]2S1(=O)=O [Tazobactam, tazobactam] |  |  |  |  |  | 0.04
3 | O=C1OC(c2cc(I)c(O)c(I)c2)(c2c(I)cc(O)cc2I)c2ccccc21 (centres unmarked) [TIPT, tetraiodophenolphthalein] | no specific inhibition | 50-800 nm | 154 ± 1 | 0.16 ± 0.02 | inhibited | 
4 | CC1(C)[C@H](C(=O)O)N2C(=O)C[C@H]2S1(=O)=O [Sulbactam, sulbactam] |  |  |  |  |  | 6.1
5 | [H]/N=C(/N)SCCCn1cc(C2=C(c3cn(C)c4ccccc34)C(=O)NC2=O)c2ccccc21 [BIS IX, bisindolylmaleimide IX] | no specific inhibition | 50-800 nm | 365 ± 9 | 0.36 ± 0.02 | inhibited | 
